Values quoted from earlier work, collected in US20060089285A1, “Stabilized chlorine bleach in alkaline detergent composition and method of making and using the same” (priority 2004, published 2006).

Assays:
[1] = OCl-/HOCl equilibrium, ambient temperature
[2] = in an alkaline liquid detergent; prior art statement

| SMILES | pKa [1] | shelf stability [2] |
| --- | --- | --- |
| OCl [HOCl] | 7.5 |  |
| OCl [sodium hypochlorite bleach, Sodium hypochlorite] |  | about 3 months |
